{"source": "patent US8304408B2", "about": "“Wnt signaling inhibitors, and methods for making and using them” (The Regents of the University of California, priority 2007, dated 2012)", "key": {"[1]": {"system": "TCF/LEF dependent reporter gene (wnt/beta-catenin signaling) in HEK293 cells", "assay": "Top-flash assay: HEK293 cells transfected with a TCF/LEF dependent reporter gene", "format": "cell-based", "details": "for inhibition of wnt-signaling path in HEK293 reporter assay: even at concentrations of 50 uM", "method": "FIG. 2 in graphic form illustrates data comparing inhibition of beta-catenin in a “Top-flash assay.” In this assay HEK 293 cells were transfected with a TCF/LEF dependent reporter gene and expression plasmid for Dsh. After overnight incubation, the cells were treated with the indicated amounts of debromohymenialdesine (“MC-001”, or dBHD, or dbHD), which is compound I in FIG. 1, analog II and III, or vehicle alone, after which the reporter gene activity was measured. All cells were also transfected with a reporter gene control for testing the transfection efficiency. In FIG. 2, the first pair of bars (to the left, closest to the y, or “fold induction”, axis) is DMSO, then moving right, the second pair of bars is 5 μM debromohymenialdesine, or dbHD (compound I of FIG. 1), then 10 μM dbHD, then 20 μM dbHD, then 50 μM compound II of FIG. 1, then 50 μM compound III of FIG. 1.\nA dose response curve for debromohymenialdesine, or “MC-001”, or dbHD (or dBHD), (compound I of FIG. 1) from the HEK293 cell line assay is shown in FIG. 3. The curve is well behaved showing a relatively steep sigmoidal inhibition-concentration profile with an IC50 value of 2 uM."}, "[2]": {"assay": "Solubility in water", "format": "physicochemical"}, "[3]": {"assay": "log P (partition coefficient)", "format": "physicochemical"}, "[4]": {"system": "chronic myelogenous leukemia stem cell (CML HSC)", "assay": "Replating efficiency (self-renewal) of CML hematopoietic stem cells", "format": "cell-based", "details": "for self-renewal / replating efficiency of leukemia stem cells: 2 uM drug concentration; for inhibition of CML HSC replating: replating efficiency after day 10 colony replating in methylcellulose", "method": "(§1) On day 10, individual colonies were plucked and replicated in new methylcellulose and the replating efficiency was determined."}, "[5]": {"system": "GMP from advanced phase CML", "assay": "Replating efficiency of CML GMP", "format": "cell-based", "details": "replating efficiency after day 10 colony replating in methylcellulose", "method": "as §1"}, "[6]": {"system": "BALB/C mice", "assay": "Toxicity tests in mice", "format": "in vivo", "details": "for toxic / adverse effects in mice: doses up to 100 mg/kg"}, "[7]": {"assay": "Storage stability", "format": "physicochemical", "details": "at RT"}, "[8]": {"system": "normal HSC", "assay": "Replating of normal HSC", "format": "cell-based", "details": "at doses that inhibited CML HSC and GMP", "method": "as §1"}}}
{"molecule": "NC1=N[C@]23CCCN2C(=O)c2cc(Br)c(Br)n2[C@@H]3N1", "note": "[dibromophakelin, reference compound]", "values": [{"measurement": "inhibition of wnt-signaling path in HEK293 reporter assay", "setting": "[1]", "result": "did not inhibit"}]}
{"molecule": "NC1=NC(=O)/C(=C2\\CCNC(=O)c3[nH]ccc32)N1", "note": "[debromohymenialdesine, (4Z)-4-(2-amino-5-oxo-3,5-dihydro-4H-imidazol-4-ylidene)-4,5,6,7-tetrahy-dropyrrolo(2,3-c)azepin-8(1H)-one]", "values": [{"measurement": "solubility", "setting": "[2]", "result": 22, "unit": "µg/mL"}, {"measurement": "logP", "setting": "[3]", "result": -0.58}, {"measurement": "self-renewal / replating efficiency of leukemia stem cells", "setting": "[4]", "result": "completely abrogated"}, {"measurement": "self-renewal / replating efficiency of leukemia stem cells", "setting": "[4]; listed as MC-001", "result": "completely abrogates"}, {"measurement": "inhibition of CML HSC replating", "setting": "[4]", "result": "inhibited"}, {"measurement": "inhibition of CML GMP replating", "setting": "[5]", "result": "inhibited"}, {"measurement": "inhibition of wnt-signaling in HEK293 cells transfected with a TCF/LEF dependent reporter gene", "setting": "[1]", "result": "inhibited"}, {"measurement": "IC50", "setting": "[1]; Homo sapiens, HEK293 cells, TCF/LEF dependent reporter gene, read-out: IC50 from dose response curve, HEK293 cell line assay", "result": 2000, "unit": "nM"}, {"measurement": "activity of synthetically obtained compound versus natural product", "setting": "[1]; compound made by total synthesis, cell based reporter system", "result": "comparable to the natural product"}, {"measurement": "toxic / adverse effects in mice", "setting": "[6]; listed as MC-001", "result": "no adverse affects"}, {"measurement": "toxic / adverse effects in mice", "setting": "[6]; listed as dBHD", "result": "no toxic effects"}, {"measurement": "tolerability in mice", "setting": "[6]; mouse, in vivo", "result": "well tolerated"}, {"measurement": "Storage stability", "setting": "[7]", "result": "several months"}, {"measurement": "effect on normal HSC replating", "setting": "[8]", "result": "spared"}]}
{"molecule": "c1ccc2nc3ccccc3c-2nc1", "note": "[indoloazepine, reference compound]", "values": [{"measurement": "inhibition of wnt-signaling path in HEK293 reporter assay", "setting": "[1]", "result": "did not inhibit"}]}
{"molecule": "NC1=NC(=O)/C(=C2\\CCNC(=O)c3[nH]c(Br)cc32)N1", "note": "[Hymenialdesine, hymenialdesine, reference compound]", "values": [{"measurement": "inhibition of wnt-signaling path in HEK293 reporter assay", "setting": "[1]", "result": "did not inhibit"}]}
{"molecule": "Recombinant Dkk1: recombinant Dkk1, a Wnt inhibitor used as comparator (protein, UniProt O94907 32-266, looked up) Dickkopf-related protein 1: TLNSVLNSNAIKNLPPPLGGAAGHPGSAVSAAPGILYPGGNKYQTIDNYQPYPCAEDEECGTDEYCASPTRGGDAGVQICLACRKRRKRCMRHAMCCPGNYCKNGICVSSDQNHFRGEIEETITESFGNDHSTLDGYSRRTTLSSKMYHTKGQEGSVCLRSSDCASGLCCARHFWSKICKPVLKEGQVCTKHRRKGSHGLEIFQRCYCGEGLSCRIQKDHHQASNSSRLHTCQRH", "values": [{"measurement": "inhibition of CML HSC replating", "setting": "[4]", "result": "did not inhibit"}]}
